The conditions of this series: rcm bond, CH2Cl2, 25.0 °C.

From patent US7592419 come the findings set out here.

Where two headings read alike, the source gives them in different places.

Under “from C=CCCCC[C@H](NC(=O)[C@@H]1[C@H]2CC(C)(C)O[C@H]2CN1C(=O)[C@H](CCCCC=C)NC(=O)OCc1ccccc1)C(=O)OC, Grubbs I [(Cy3P)2Cl2Ru=CHPh], 50.0 mM, 24.0 h”, `COC(=O)[C@@H]1CCCCC=CCCCC[C@H](NC(=O)OCc2ccccc2)C(=O)N2C[C@@H]3OC(C)(C)C[C@@H]3[C@H]2C(=O)N1` came in with a ring closure, yield of all isomers of 58.9%.

`COC(=O)CNC(=O)C(O)[C@@H]1CCCC=CCC[C@H](NC(=O)OCC(C)C)C(=O)N2CCC[C@H]2C(=O)N1` (stereo partly shown) showed a ring closure, yield of all isomers (from C=CCCC[C@H](NC(=O)[C@@H]1CCCN1C(=O)[C@H](CCC=C)NC(=O)OCC(C)C)C(O)C(=O)NCC(=O)OC, Grubbs catalyst (Grubbs I), 3.0 mM, 65.0 h) of 20%.

Take `COC(=O)[C@@H]1CCCCC=CCCCC[C@H](NC(=O)OC(C)(C)C)C(=O)N2C[C@H]3[C@@H]([C@H]2C(=O)N1)C3(C)C`: the ring closure, yield of all isomers (from C=CCCCC[C@H](NC(=O)[C@@H]1[C@@H]2[C@H](CN1C(=O)[C@H](CCCCC=C)NC(=O)OC(C)(C)C)C2(C)C)C(=O)OC, Grubbs I [(Cy3P)2Cl2Ru=CHPh], 100.0 mM, 24.0 h) came out at 48.2%.

`COC(=O)[C@@H]1CCCCC=CCCCC(C)(C)[C@H](NC(=O)OCc2ccccc2)C(=O)N2C[C@H]3[C@@H]([C@H]2C(=O)N1)C3(C)C` yielded a ring closure, yield of all isomers (from C=CCCCC[C@H](NC(=O)[C@@H]1[C@@H]2[C@H](CN1C(=O)[C@@H](NC(=O)OCc1ccccc1)C(C)(C)CCCC=C)C2(C)C)C(=O)OC, Grubbs catalyst (Grubbs I), 101.1 mM, 24.0 h) of 44.5%.
